# Reference: patent US11395867B2, “Degradable removable implant for the sustained release of an active compound” (Janssen Sciences Ireland Unlimited Company, priority 2009, dated 2022)
# “And” between values parts separate entries of the source, which are not always exact repeats. Equal values may be shown once.
# Experiments:
# [1] = In vivo testing of laser drilled melt extruded tube containing two sets of microparticles formulated with F108, plasma concentrations; parameters: species or system Sprague-Dawley rats; conditions: rat, subcutaneous laser drilled extruded tube implant, TMC278 109 mg/kg, compound 1 78 mg/kg, individual animals 1-4
# Method: The laser drilled melt extruded tube was prepared as described above in example 10. The microparticles were prepared by the spinning disc method using a 3% (w/w) polymer/acetone solution. Two sets of microparticles were prepared. The target composition of one set was 70% (w/w) TMC278, 20% (w/w) PLGA 50/50 (Lakeshore Biomaterials IVHFIP=0.79 dl/g), and 10% (w/w) F108 (BASF). The target composition of the other set of microparticles was 70% (w/w) compound 1, 20% (w/w) PLGA 50/50 (Lakeshore Biomaterials IVHFIP=0.18 dl/g), and 10% (w/w) F108. The F108 was added to the polymer solution.
# The size range of the microparticles was determined by randomly selecting a sample of microparticles and placing them on the stage of an optical microscope and using a ruler to measure the various sizes of the microparticles in the randomly selected sample. The size range of the TMC278 and compound 1 microparticles was 10-100 microns and 20-100 microns, respectively. Microparticles were mixed as described in example 9. Approximately 133 mg of the microparticle mixture was introduced into tubes using a spatula to transfer the contents.
# The prepared tubes were implanted into the subcutaneous space on the back of four male Sprague-Dawley rats weighing between 250-350 grams. The dose of TMC278 and compound 1 was 109 mg/kg and 78 mg/kg, respectively. The tail vein was sampled at pre-determined time points. Blood samples were immediately centrifuged to extract the plasma, plasma was analyzed for compound 1 and TMC278 by LC/MS/MS. The lower limit of quantitation for TMC278 and compound 1 was 0.4 ng/ml and 2 ng/ml, respectively.
# [2] = Solubility experiments of TMC278 in water; format: physicochemical
# Text: The solubility of TMC278 dramatically increases at pH=2. […] The use of an acidic binder gel that can effectively lower pH, can increase the rate of elution of TMC278 from the polymer matrix. Increasing the concentration of the acidic polymer in the gel can depress the pH even further (Table 1).
# [3] = In vivo testing of electrostatically spun tube containing two sets of microparticles, plasma concentrations; parameters: species or system Sprague-Dawley rats; conditions: rat, subcutaneous electrospun tube implant, TMC278 139 mg/kg, compound 1 64 mg/kg, individual animals 1-4
# Method: Tubes were electrostatically spun from a 100 mg/ml polydioxanone (IVHFIP=1.99 dl/g) hexafluoroisopropanol solution. A 4 mm mandrel was used to provide a consistent inner diameter of 4 mm. The rotational speed of the mandrel was 400 rpm, the charging voltage range was 20/−10 kV, and the pump flow rate was 10 ml/hour. The resulting wall thickness was 500 microns. Fiber diameters were 1-2 microns and the average pore size formed from the network of fibers was 20 microns as determined by Scanning Electron Microscopy.
# The microparticles were prepared by the spinning disc method using a polymer/acetone solution with a concentration ranging from 3-4% (w/w). Two sets of microparticles were prepared. The target composition of one set was 70% (w/w) TMC278 and 30% (w/w) PLGA 50/50 (Lakeshore Biomaterials IVHFIP=0.79 dl/g). The target composition of the other set of microparticles was 70% (w/w) of compound 1 (=compound 14 of WO01/25240) and 30% (w/w) PLGA 50/50 (Lakeshore Biomaterials IVHFIP=0.18 dl/g). This compound 1 has the following structure and will be referred to hereinafter as compound 1:
# Approximately 133 mg of the microparticle mixture was introduced into the electrostatically prepared tubes using a spatula.
# The prepared tubes were implanted into the subcutaneous space on the back of four male Sprague-Dawley rats weighing between 250-350 grams. The dose of TMC278 was 139 mg/kg and the dose of compound 1 was 64 mg/kg. The tail vein was sampled at pre-determined time points. Blood samples were immediately centrifuged to extract the plasma, plasma was analyzed for compound 1 and TMC278 by LC/MS/MS. The lower limit of quantitation was 0.4 ng/ml and 2 ng/ml for TMC278 and compound 1, respectively.
# [4] = In vivo testing of laser drilled melt extruded tube containing two sets of microparticles, plasma concentrations; conditions: rat, subcutaneous laser drilled extruded tube implant, TMC278 139 mg/kg, compound 1 64 mg/kg, individual animals 1-4
# Method: Tubes with inner diameter of 4.5 mm were extruded from polydioxanone (IVHFIP=1.99 dl/g) using a ¾ inch single screw extruder fitted with a tube die. The dimensions of the tube were monitored using an in-line laser diameter measuring system and maintained using a puller. Following the extrusion the tubes were laser drilled. In preparation for the laser drilling a mask design was prepared that located the holes 260 microns apart from one another. Scanning electron microscopy was used to size the inner and outer diameter of the holes. […] The microparticles were prepared as described in Example 9. Approximately 133 mg of the microparticle mixture was introduced into the tubes.
# The prepared tubes were implanted into the subcutaneous space on the back of four male Sprague-Dawley rats weighing between 250-350 grams. The dose of TMC278 was 139 mg/kg and the dose of compound 1 was 64 mg/kg. The tail vein was sampled at pre-determined time points. Blood samples were immediately centrifuged to extract the plasma, and plasma was analyzed for compound 1 and TMC278 by LC/MS/MS. The lower limit of quantitation for TMC278 and compound 1 was 0.4 ng/ml and 2.0 ng/ml, respectively.
# [5] = male, Sprague-Dawley, plasma, subcutaneous, 7 day
# [6] = male, Sprague-Dawley, plasma, subcutaneous, 14 day
structure (smiles),measurement,setting,value
"Cc1cc(/C=C/C#N)cc(C)c1Nc1ccnc(Nc2ccc(C#N)cc2)n1 [TMC278, rilpivirine]",plasma concentration,[1]; 3 hour,2.12 ng/mL and 1.40 ng/mL and 2.42 ng/mL and 1.02 ng/mL
same,plasma concentration,[1]; 1 day,0.797 ng/mL and 0.522 ng/mL and 0.939 ng/mL and <0.4 ng/mL
same,plasma concentration,[1]; 3 day,<0.4 ng/ml (2×) and 0.521 ng/ml
same,plasma concentration,[1]; 7 day,<0.4 ng/ml (2×) and 0.405 ng/ml
same,plasma concentration,[1]; 14 day,<0.4 ng/mL and 0.478 ng/mL and 0.664 ng/mL
same,plasma concentration,[1]; 28 day,2.13 ng/mL and 0.539 ng/mL and 1.13 ng/mL and 2.19 ng/mL
same,plasma concentration,[1]; 35 day,2.17 ng/mL and 0.744 ng/mL and 1.48 ng/mL and 2.48 ng/mL
same,concentration at 3 day,"[1]; male, Sprague-Dawley, plasma, 3 day",0.485 ng/mL
same,concentration at 7 day,"[1]; male, Sprague-Dawley, plasma, 7 day",< 0.4 ng/mL
same,concentration at 14 day,"[1]; male, Sprague-Dawley, plasma, 14 day",0.6 ng/mL
same,solubility in water at pH of 2 relative to pH of 7,[2]; pH 2 vs pH 7,950 times
same,solubility in water,[2]; water,extreme insolubility
same,plasma concentration,[3]; 3 hour,0.562 ng/mL and 0.462 ng/mL and 0.576 ng/mL
same,plasma concentration,[3]; 1 day,0.441 ng/mL and <0.4 ng/mL and 0.575 ng/mL
same,plasma concentration,[3]; 3 day,0.518 ng/mL and <0.4 ng/mL and 0.549 ng/mL
same,plasma concentration,[3]; 7 day,0.645 ng/ml and <0.4 ng/ml (2×)
same,plasma concentration,[3]; 14 day,<0.4 ng/ml (2×) and 0.424 ng/ml
same,plasma concentration,[3]; 28 day,<0.4 ng/ml (2×) and 0.475 ng/ml
same,plasma concentration,[3]; 35 day,0.527 ng/mL and 0.769 ng/mL and 0.400 ng/mL
same,concentration at 3 h,"[3]; male, Sprague-Dawley, plasma, subcutaneous, 3 hour",0.505 ng/mL
same,concentration at 1 day,"[3]; male, Sprague-Dawley, plasma, subcutaneous, 1 day",< 0.4 ng/mL
same,concentration at 3 day,"[3]; male, Sprague-Dawley, plasma, subcutaneous, 3 day",< 0.4 ng/mL
same,concentration at 7 day,[3]; [5],0.421 ng/mL
same,concentration at 14 day,[3]; [6],< 0.4 ng/mL
same,concentration at 28 day,"[3]; male, Sprague-Dawley, plasma, subcutaneous, 28 day",< 0.4 ng/mL
same,concentration at 35 day,"[3]; male, Sprague-Dawley, plasma, subcutaneous, 35 day",< 0.4 ng/mL
same,plasma concentration,[4]; 3 hour,0.551 ng/mL and 1.42 ng/mL and 2.51 ng/mL and 1.61 ng/mL
same,plasma concentration,[4]; 1 day,<0.4 ng/ml (2×) and 0.432 ng/ml and 1.22 ng/ml
same,plasma concentration,[4]; 3 day,<0.4 ng/ml (3×) and 1.14 ng/ml
same,plasma concentration,[4]; 7 day,0.4 ng/mL and 0.695 ng/mL and <0.4 ng/mL
same,plasma concentration,[4]; 14 day,<0.4 ng/mL and 0.425 ng/mL and 0.456 ng/mL
same,plasma concentration,[4]; 28 day,<0.4 ng/mL and 0.451 ng/mL and 1.36 ng/mL and 0.773 ng/mL
same,plasma concentration,[4]; 35 day,<0.4 ng/mL and 0.403 ng/mL and 2.11 ng/mL and 0.881 ng/mL
same,concentration at 7 day,[4]; [5],< 0.4 ng/mL
same,concentration at 14 day,[4]; [6],< 0.4 ng/mL
